From US20100197749A1, “CHEMICAL COMPOUNDS” (ASTRAZENECA AB, priority 2006, published 2010)

Biological target: T1, EDG-1/S1P1 receptor (Homo sapiens, UniProt P21453)
T1 construct: expressed in transfected cells; host or cells: U2OS (human osteosarcoma), EDG-1 Transfluor U20S WT Clone #37
Test: In Vitro Cell Based Receptor Activation Assay-Transfluor Assay
Conditions: inhibition of S1P-stimulated (375 nM or 750 nM) beta-arrestin GFP relocalization; EDG-1 Transfluor U20S WT Clone #37 cells
From the text: The following assay can be used to measure the effects of the compounds of the present invention as S1P1/Edg1 inhibitors.
This cell-based assay was designed to assess the ability of small molecule antagonists to inhibit activation of the GPCR S1P1 in the presence of its cognate ligand S1P. The assay used technology initially developed by Norak Biosciences (Xsira Pharmaceutical) and presently owned by Molecular Devices. A human osteogenic sarcoma (U20S) cell line overexpressing the EDG-1/S1P1) receptor as well as a beta-arrestin/green fluorescent protein (GFP) construct hereafter termed EDG-1 Transfluor U20S WT Clone #37 was employed.
Using a high content screening approach (Cellomics Arrayscan), receptor activity was measured by assessment of the relocalization of beta-arrestin GFP in response to stimulation of EDG-1 by SIP. Specifically, EDG-1 Transfluor U20S WT Clone #37 cells were plated at a density of 6250 cells in 40 μL medium per well in 384 well plastic bottomed microtiter plates (BD Falcon) and incubated overnight at 37° C./5% CO2. Prior to screening, compounds were dissolved in 100% dimethyl sulfoxide (DMSO) to a final stock concentration of 10 mM. […] Plates were then sealed and analysed on the Cellomics Arrayscan using the GPCR signalling algorithm. EC50 values were then calculated using IDBS ActivityBase software.

EC50 [nM] | SMILES
670 | CCn1c(C(C)NS(=O)(=O)c2ccc(Cl)cc2)nnc1C(F)(F)F (centres unmarked) [Example 11, 4-Chloro-N-[1-(4-ethyl-5-trifluoromethyl-4H-[1,2,4]triazol-3-yl)-ethyl]-benzenesulfonamide]
133 | CCn1c(OC)nnc1[C@@H](Cc1cccnc1)NS(=O)(=O)c1ccc(Cl)cc1 [Example 16, 4-Chloro-N-[(R)-1-(4-ethyl-5-methoxy-4H-[1,2,4]triazol-3-yl)-2-pyridin-3-yl-ethyl]benzenesulfonamide]
